According to patent US8088916B2, “Hyaluronic acid-methotrexate conjugate” (priority 2004, dated 2012):

Tests used:
[1] = system: collagenase-induced arthritis (OA) model; assay: Suppressive effect on knee joint swelling in collagenase-induced arthritis (OA) model; assay type: in vivo, rat; details: AUC of knee joint swelling to 20 days after induction; 50 μL into right knee joint once a week from 7 and 1 day before induction; compared with HA-treated group
Experimental: An in vivo synovitis-suppressing effect of the HA-MTX conjugate was evaluated in collagenase-induced OA model rats. The collagenase-induced OA model is a model in which inflammation has been induced within the knee joint by injecting collagenase into the knee joint to directly digest collagen in cartilage tissue. […] Therefore, the compound of the invention suppressing inflammation in the model and inhibiting cartilage degeneration therein will be useful as a therapeutic drug for OA.
The animal used was the SD/Crj rat (6-week old male, from Charles River Laboratories Japan, Inc.). Into the articular cavity of the right knee was administered 50 μL of 1.5% collagenase (Sigma) solution to induce arthritis. The left knee joint was untreated to use as a control in each individual. Each test substance was administered into the right knee joint in an amount of 50 μL once a week from 7 and 1 day before inducing arthritis.
The determination of knee joint swelling involved measuring the widths of both knee joints with calipers to determine the left/right difference (right knee diameter-left knee diameter), which was defined as a knee joint swelling. The width of each knee joint was measured on the order of twice a week from immediately before inducing arthritis to 20 days later to calculate AUC from a graph showing the transition thereof with time. At each measurement, the mean and standard error of the mean of AUC were calculated to perform an unpaired t-test between each test substance-treated group and the HA-treated group, and significant difference was judged to be present if the probability level is less than 5%.

[2] = system: mBSA-induced monoarthritis model; assay: Suppressive effect on knee joint swelling in mBSA-induced monoarthritis model; assay type: in vivo, rat; details: for AUC (% of control) (mean ± SEM): AUC of knee joint swelling to two weeks after induction, control = HA-treated group, 50 μL into right knee joint 7 and 1 day before and 7 days after induction
Experimental: An in vivo synovitis-suppressing effect of each HA-MTX conjugate of the invention was assessed on the basis of a suppressive effect on knee joint swelling in a methylated bovine serum albumin (mBSA)-induced monoarthritis model of rat. Since the mBSA-induced arthritis model employed in this experimental example is widely used as an antigen-induced arthritis model, and known to develop synovitis (Sven E. Andersson, et al., The Journal of Rheumatology (1998) 25: 9, 1772-7), the in vivo knee joint swelling-suppressing effect observed in this model conceivably represents a synovitis-suppressing effect. The compounds of the invention suppressing synovitis in vivo are useful as therapeutic drugs for joint diseases accompanied by synovitis (RA, OA, and the like).
The animal used was the LEW/Crj rat (6-week old male, from Charles River Laboratories Japan, Inc.). Into the flank of the rat was subcutaneously injected 0.5 mL of an emulsion prepared from a 2 mg/mL mBSA (Calbiochem) aqueous solution and an equal amount of Freund's complete adjuvant (Difco) 21 and 14 days before inducing arthritis. The arthritis was induced by administering 50 μL of a 2 mg/mL mBSA aqueous solution into the right knee joint. The left knee joint was untreated, and served as control in each individual. Each test substance (sterile aqueous solution) and the control drug hyaluronic acid were each administered into the right knee joint in an amount of 50 μL 7 and 1 day before and 7 days after inducing arthritis.
The determination of knee joint swelling involved measuring the widths of both knee joints with calipers to define the left/right difference (right knee diameter-left knee diameter) as a knee joint swelling. The width of each knee joint was measured at a frequency of twice a week from immediately before inducing arthritis to two weeks later to calculate AUC (an abbreviation for Area Under the Curve; here, it means an area under a curve with time for the joint swelling) from the transition thereof with time. At each measurement, the mean and standard deviation of AUC were calculated to perform an unpaired t-test between each test substance-treated group and the HA-treated group, and significant difference was judged to be present if the probability level is less than 5%. Statistical analysis used SAS version 6.12 (SAS Institute Japan). In addition, the AUC of each test substance was calculated, using that in the HA-treated group as a control, as a relative value (% of control) therefor.
To verify the usefulness of the HA-MTX conjugate of the invention, the suppressive effect on joint swelling was compared, in accordance with the method of Example 3, among: 1) a group treated with the HA-MTX conjugate (sterile aqueous solution) prepared in Example 2-2; 2) a group treated with a solution containing MTX of an amount equal to that of MTX contained in the HA-MTX conjugate; and 3) a group of treated with a mixture (HA+MTX) of MTX and hyaluronic acid (HA) of amounts equal to those contained in the conjugate. The transition of knee joint swelling with time in this test is shown in FIG. 2, and the AUC thereof in FIG. 3.

[3] = system: human synovial cells (HFLS); assay: Anti-proliferative effect on synovial cells stimulated by TNF-α ([3H]-deoxyuridine uptake); assay type: cell-based; details: TNF-α 10 ng/mL, 5 days culture, concentration calculated as MTX from conjugation rate
Excerpt: An effect of the HA-MTX conjugates of the invention on cell proliferation induced by TNF-α stimulation was examined using human synovial cells (HFLS). The main lesion in rheumatoid arthritis (RA) occurs in the synovial tissue, and, as one of the features, it is known that synovial cells abnormally proliferate to form a granulation tissue (pannus) and thereby destroy the cartilage and bone of the joint. Secondary synovitis is also observed in osteoarthritis (OA). […] Thus, a compound inhibiting the proliferation of synovial cells stimulated by the inflammatory cytokine TNF-α suppresses the progression of the pathologic conditions of RA and OA and becomes a therapeutic drug therefor. The sterile aqueous solutions of the HA-MTX conjugates in Example 2 (Table 2) were used as test substances. HFLS (CA40405, Lot Nos. 1413 and 1493) was purchased from Cell Applications Ins. for use. HFLS was seeded at 5,000 cells/well on a 96-well plate (Falcon) and cultured for 3 hours in Iscove's modified Dulbecco's medium (IMDM) containing 5% FBS and 1× Antibiotic-Antimycotic (GIBOC). After cellular attachment, TNF-α (final concentration: 10 ng/mL) and each HA-MTX conjugate at each concentration was added, followed by cultivation for 5 days. Two days before the end of culture, was added 37 kBq/well of [^3H]-deoxyuridine in the cells (MORAVEK), followed by determining the uptake quantity (radioactivity) of [^3H]-deoxyuridine using a scintillation counter. Cells were recovered by unsticking them with 0.05% trypsin-0.2% EDTA. Radioactivity determined in each of the experiments with each test substance was calculated as a relative value (% of control), using, as control, radioactivity in the group of cells cultured without adding any test substance. […] GraphPad Prism 3.02).

[4] = Measurement of viscoelasticity; assay type: physicochemical; details: sterile solutions, 37° C., cone 4 cm, CSL500 stress-controlled rheometer; FIG. 1
Experimental: The viscoelasticities of the sterile solutions of hyaluronic acids (molecular weights: 1,900,000 and 800,000) and the conjugates of Examples 2-1, 2-8, 2-18, 2-27, and 2-29 were measured at 37° C. using a cone 4 cm in diameter by a CSL500 stress-controlled rheometer (from Carri-Med Ltd.).

[5] = system: arthritis model in which pathosis occurs in the knee joint; assay: Intra-articular administration to an arthritis model in which pathosis occurs in the knee joint; assay type: in vivo; details: intra-articularly administered; summary statement

| Substance | AUC (% of control) (mean ± SEM) [1] | AUC (% of control) (mean ± SEM) [2] | IC50 [3] [nM] | viscoelasticity [4] | suppressive effect on joint swelling / alleviating effect on synovitis ([2]; Experimental Example 4: conjugate vs equal amount of MTX vs mixture HA+MTX, FIGS. 2 and 3) | alleviating effect on synovitis [5] |
| --- | --- | --- | --- | --- | --- | --- |
| MTX-α-Ile-NHC10H20O3NH-HA [Example 2-27] | 82.6 ± 5.2 % of control | 75.1 ± 6.8 % of control | 3100 | viscoelasticities intermediate between those of the hyaluronic acids having molecular weights of 800,000 and 1,900,000 | – | – |
| MTX-α-PheGly-NHC10H20O3NH-HA [Example 2-18] | 65.9 ± 3.5 % of control | 61.5 ± 4.7 % of control | 9200 | viscoelasticities intermediate between those of the hyaluronic acids having molecular weights of 800,000 and 1,900,000 | – | – |
| MTX-α-PhePhe-NHC2H4NH-HA [Example 2-1] | 45.7 ± 3.9 % of control | 48.5 ± 5.3 % of control | 360 | viscoelasticities intermediate between those of the hyaluronic acids having molecular weights of 800,000 and 1,900,000 | – | – |
| MTX-α-PhePhe-NHC2H4NH-HA [Example 2-2] | 48.9 ± 3.7 % of control | 45.0 ± 6.8 % of control | 140 | – | markedly strong suppressive effect on the joint swelling in the arthritis model compared to that of MTX alone or the mixture of MTX and HA | – |
| MTX-α-PhePhe-NHC10H2OO3NH-HA [Example 2-8] | 54.8 ± 5.9 % of control | 54.9 ± 7.2 % of control | 840 | viscoelasticities intermediate between those of the hyaluronic acids having molecular weights of 800,000 and 1,900,000 | – | – |
| hyaluronic acid [HA] | – | – | – | – | – | not seen with HA |
